According to PMC8111447 (Frontiers in Pharmacology, 2021):
Read-outs that look alike come from different tables or passages of the source.

Legend:
EGFR T790M = system: EGFR T790M; set-up: method as in Cross et al., 2014; settings: ref Cross et al., 2014; cited from earlier work
[1] = set-up: method as in earlier work; settings: main metabolites of osimertinib, ref Cheng et al., 2016, Dickinson et al., Vishwanathan et al., 2019; cited from earlier work
[2] = system: NCI-H1975 (EGFR^L858R/T790M); test: Cell proliferation assay (CTG, 72 h); format: cell-based; settings: Homo sapiens, NCI-H1975 cells, mean ± SD, n = 3
Procedure: (§1) Human lung cancer cell lines (NCI-H1975, H3255 and A431) were obtained from the American Type Culture Collection (ATCC), while PC-9 cell line was supplied by the European Collection of Authenticated Cell Cultures (ECACC). For in vivo implantation, NCI-H1975, H3255 and PC-9 cells were cultured in RPMI1640 (Invitrogen) supplemented with 10% v/v fetal calf serum (Sigma-Aldrich) and 2 mmol/L L-glutamine (Invitrogen). A431 cells were cultured in DMEM (Invitrogen) supplemented with 10% v/v fetal calf serum and 2 mmol/L v/v L-glutamine. All cell lines were then cultured in a humidified incubator with 5% CO2 at 37°C.
(§2) Test compounds were dissolved in DMSO as a 10 mmol/L stock solution. The initial concentration of compounds were 10 μmol/L and the 3-fold dilution was nine times. […] Plate was shaked for 2 min and the mixture was incubated at room temperature for 10 min.
(§3) The half-maximal inhibition concentration (IC50) values were processed by GraphPad Prism7 (GraphPad Software; La Jolla, CA).

A431 (EGFR^WT) = test: Cell proliferation assay (CTG, 72 h); format: cell-based; settings: Homo sapiens, A-431, A431 cells, mean ± SD, n = 3
Procedure: as §1, §2, §3

NSCLC patients = settings: cited from earlier work
PC-9 (EGFR^d746–750) = test: Cell proliferation assay (CTG, 72 h); format: cell-based, human; settings: Homo sapiens; PC-9 cells, 72 h; mean ± SD, n = 3
Procedure: as §1, §2, §3

H3255 (EGFR^L858R) = test: Cell proliferation assay (CTG, 72 h); format: cell-based, human; settings: Homo sapiens, NCI-H3255; H3255 cells, 72 h; mean ± SD, n = 3
Procedure: as §1, §2, §3

[3] = system: A431 (wild-type EGFR) tumor xenografts; test: A431 xenograft model; format: in vivo, Nu/Nu nude mice; settings: 30 mg/kg
Procedure: The female Nu/Nu nude mice were purchased from Beijing Vital River Laboratories. […] Nu/Nu nude mice were purchased from the Beijing Vital River Laboratories of China. The 6–8 weeks old female mice were inoculated subcutaneously at the right flank with approximately 3–5 × 10^6 tumor cells in 0.2 ml of medium. The treatments were started when the tumor size reached approximately 200 mm^3. […] All mice were orally administrated once daily for consecutive 14 days. Mouse body weight, tumor weight and tumor volume (TV) were measured twice per week. TV was then used for the calculation of tumor inhibitory rate and tumor regression rate.

[4] = NSCLC patients with EGFR T790M mutation, ref Jänne et al., 2015, Mok et al., 2017

Question: Which results are given for `C=CC(=O)Nc1cc(Nc2nccc(-c3c[nH]c4ccccc34)n2)c(OC)cc1N(C)CCN(C)C` [AZ5104]?
Answer: fold more active on EGFR T790M than osimertinib (EGFR T790M): 8 fold; metabolite level relative to the parent drug [1]: about 10%

Question: With `C=CC(=O)Nc1cc(Nc2nccc(-c3cn(C)c4ccccc34)n2)c(OC)cc1N(C)CCNC` [AZ7550] as the compound, how does the “metabolite level relative to the parent drug” value [1] read?
Answer: about 10%

Question: For `C=CC(=O)Nc1cc(Nc2nccc(-c3cn(C)c4ccccc34)n2)c(OC)cc1N(C)CCN(C)C` [Osimertinib], which IC50 [2] is on record?
Answer: […]

Question: And the ORR (NSCLC patients; [4])?
Answer: 70%

Question: What about the “median PFS” value (NSCLC patients; [4]) of the same compound?
Answer: 9.9 months

Question: What about the “efficacy compared to the first-line EGFR TKIs” value (NSCLC patients; advanced NSCLC patients with EGFR mutations, comparator 10.2 months, ref Soria et al., 2018, Ramalingam et al., 2020) of the same compound?
Answer: 18.9 months

Question: What about the overall survival (NSCLC patients; advanced NSCLC patients with EGFR mutations, comparator group 31.8 months, ref Soria et al., 2018, Ramalingam et al., 2020) of the same compound?
Answer: 38.6 months

Question: And the ORR (NSCLC patients; second-line, locally advanced or metastatic NSCLC progressed on prior EGFR TKI, ref Goss et al., 2016, Mok et al., 2017)?
Answer: 70%

Question: What about the IC50 (PC-9 (EGFR^d746–750)) of the same compound?
Answer: 14.2 ± 1.63 nM

Question: What about the IC50 (H3255 (EGFR^L858R)) of the same compound?
Answer: 17.8 ± 0.5 nM

Question: For `CN(C)C/C=C/C(=O)Nc1cc2c(Nc3ccc(F)c(Cl)c3)ncnc2cc1O[C@H]1CCOC1` [afatinib, reference compound], which body weight [3] is on record?
Answer: severe body loss
